In patent publication US20090197856A1, “ANTIVIRAL COMPOUNDS” (Genelabs Technologies, Inc., priority 2007, published 2009):

Each compound was assayed against T1, NS5B (Hepatitis C virus genotype 1b, UniProt Q9WMX2) (assay: Polymerase assay, incorporation of radiolabeled GTP with biotinylated oligoG13 primer and polycytidylic acid RNA template). Conditions: polyC RNA template, biotin-oligoG13 primer, tritiated GTP, 3 nM NS5B, 30° C., 2 hours.
T1 construct: 3 nM NS5B, 20 nM polyC RNA template
Assay type: biochemical
Experimental: The polymerase activity was also assayed by measuring incorporation of radiolabeled GTP into an RNA product using a biotinylated oligoG13 primer with a polycytidylic acid RNA template. Typically, the assay mixture (40 μL) contains 50 mM HEPES (pH 7.3), 2.5 mM magnesium acetate, 2 mM sodium chloride, 37.5 mM potassium acetate, 5 mM DTT, 0.4 U/mL RNasin, 2.5% glycerol, 3 nM NS5B, 20 nM polyC RNA template, 20 nM biotin-oligoG13 primer, and 0.2 μM tritiated guanosine triphosphate. Test compounds were initially dissolved and diluted in 100% DMSO and further diluted into aqueous buffer, producing a final concentration of 5% DMSO. Typically, compounds were tested at concentrations between 0.2 nM and 10 μM. Reactions were started with addition of tritiated guanosine triphosphate and allowed to continue at 30° C. for 2 hours. Reactions were quenched with 100 μL stop buffer containing 10 mM EDTA and 1 μg/mL streptavidin-coated scintillation proximity beads. Reaction plates were incubated at 4° C. for 10 hours and then incorporation of radioactivity was determined by scintillation counting. The table below lists the IC50 values of compounds determined using this procedure.
Compound `O=C(O)c1ccc2c(C3CCCCC3)c3n(c2c1)CCN1CCC(NC2CCCC2)c2cccc-3c21` (racemic) [Compound 280] has an IC50 of 2.18 nM.
Compound `NCCC1CCN2CCn3c(c(C4CCCCC4)c4ccc(C(=O)O)cc43)-c3cccc1c32` (single isomer, unassigned) [Compound 302, 4-(2-Aminoethyl)-15-cyclohexyl-5,6,8,9-tetrahydro-4H-indolo[1′,2′:4,5][1,4]diazepino[6,7,1-ij]quinoline-12-carboxylic acid] has an IC50 of 2.68 nM.
`O=C(O)c1ccc2c(C3CCCCC3)c3n(c2c1)CCCn1cc(N2CCCCC2)c2cccc-3c21` [Compound 261] showed an IC50 of 3 nM.
For `CC1(C)C(=O)N2CCCn3c(c(C4CCCCC4)c4ccc(C(=O)O)cc43)-c3cccc1c32` [Compound 265, 12-cyclohexyl-1,1-dimethyl-2-oxo-1,2,5,6-tetrahydro-4H-[1,5]diazocino[1,2-a:5,4,3-h′i′]diindole-9-carboxylic acid], the IC50 was 9 nM.
`CCC1(CC)C(=O)N2CCCn3c(c(C4CCCCC4)c4ccc(C(=O)O)cc43)-c3cccc1c32` [Compound 266, 12-cyclohexyl-1,1-diethyl-2-oxo-1,2,5,6-tetrahydro-4H-[1,5]diazocino[1,2-a:5,4,3-h′i′]diindole-9-carboxylic acid] showed an IC50 of 11 nM.
For `CCC1(CC)C(=O)N2CCCn3c(c(C4CCCCC4)c4ccc(C(=O)O)cc43)-c3ccc(F)c1c32` [Compound 267, 12-cyclohexyl-1,1-diethyl-15-fluoro-2-oxo-1,2,5,6-tetrahydro-4H-[1,5]diazocino[1,2-a:5,4,3-h′i′]diindole-9-carboxylic acid], the IC50 was 10 nM.
`O=C(O)c1ccc2c(C3CCCCC3)c3n(c2c1)CCCN1C(=O)C2(CC2)c2cccc-3c21` [Compound 269, 12′-cyclohexyl-2′-oxo-5′,6′-dihydro-4′H-spiro[cyclopropane-1,1′-[1,5]diazocino[1,2-a:5,4,3-h′i′]diindole]-9′-carboxylic acid] showed an IC50 of 21 nM.
`O=C(O)c1ccc2c(C3CCCCC3)c3n(c2c1)CCCN1C(=O)Cc2cccc-3c21` [Compound 270, 12-cyclohexyl-2-oxo-1,2,5,6-tetrahydro-4H-[1,5]diazocino[1,2-a:5,4,3-h′i′]diindole-9-carboxylic acid] was tested, and the IC50 was 26 nM.

Each compound was assayed against T2, HCV-NS5b (Hepatitis C virus genotype 1b, UniProt Q9WMX2) (assay: HCV-NS5b enzyme assay using homopolymer substrate). Conditions: not given.
T2 construct: (His)6 (C); made in house; host or cells: XL-1 cells (E. coli), IPTG-inducible plasmid
Assay type: biochemical
Description: The coding sequence of NS5b protein was cloned by PCR from pFKI389luc/NS3-3′/ET as described by Lohmann, V., et al. (1999) Science 285, 110-113 using the primers shown on page 266 of WO 2005/012288
The cloned fragment is missing the C terminus 21 amino acid residues. The cloned fragment was inserted into an IPTG-inducible (isopropyl-β-D-thiogalactopyranoside) expression plasmid that provides an epitope tag (His)6 at the carboxy terminus of the protein.
The recombinant enzyme was expressed in XL-1 cells and after induction of expression, the protein was purified using affinity chromatography on a nickel-NTA (nitrilotriacetic acid) column. Storage condition was 10 mM Tris-HCl pH 7.5, 50 mM NaCl, 0.1 mM EDTA (ethylenediaminetetraacetic acid), 1 mM DTT (dithiothreotol), 20% glycerol at −20° C.
The polymerase activity was assayed by measuring incorporation of radiolabeled UTP into a RNA product using a biotinylated, homopolymeric template. The template was formed by annealing adenosine homopolymer to uridine 20-mer capped with a 5′-biotin group (biotin-U^20) in the ratio of 1:4. Typically, the assay mixture (50 μL) contained 25 mM Tris-HCl (pH 7.5), 40 mM KCl, 0.3 mM MgCl2, 0.05 mM EDTA, 0.2 unit/μL Superase RNAse Inhibitor, 5 mM DTT, 30 μM UTP (Uridine triphosphate), including [^3H]-UTP (uridine triphosphate) at 0.4 μCi/μL with final concentration of 1 μM, and 50 nM of homopolymeric template. Test compounds were initially dissolved in 100% DMSO and further diluted in aqueous buffer containing 5% DMSO. Typically, compounds were tested at concentrations between 2 nM and 50 μM. Reactions were started with addition of enzyme and allowed to continue at 30° C. for 90 minutes. Reactions were quenched with 8 μL of 100 mM EDTA and reaction mixtures (30 μL) were transferred to streptavidin-coated scintillation proximity microtiter plates (FlashPlates) and incubated at room temperature overnight. Incorporation of radioactivity was determined by scintillation counting.
Inhibitor IC50 values were determined by adding test compound as ten point, two-fold serial dilutions in 100% DMSO with a final reaction concentration of 5%. IC50 was calculated by plotting the % inhibition against compound concentration and fitting the data to a constrained four parameter sigmoidal curve, equivalent to the “four parameter logistic equation”:
Where Bottom is the minimum Y value, Top is the maximum Y value, and Hillslope is the slope of the linear portion of the semi-log curve. Top and Bottom were constrained to values of 0% and 100%, respectively. These analyses were performed using Graphpad Prism v.4.0 (Graphpad Software, Inc.) in conjunction with DS Accord for EXCEL 6.0 (Accelrys, Microsoft Corp.).
The table below lists the IC50 values of compounds determined using the homopolymer substrates.
`O=C(O)c1ccc2c(C3CCCCC3)c3n(c2c1)CCCn1cc(C(=O)N2CCCC2)c2cccc-3c21` [Compound 437] gave an IC50 of 151 nM.
With `CCN(CC)C(=O)c1cn2c3c(cccc13)-c1c(C3CCCCC3)c3ccc(C(=O)O)cc3n1CCC2` [Compound 438] the IC50 was 69 nM.
For `CN1CCN(C(=O)c2cn3c4c(cccc24)-c2c(C4CCCCC4)c4ccc(C(=O)O)cc4n2CCC3)CC1` [Compound 439], the IC50 was 182 nM.
`CN(C)CCNC(=O)c1cn2c3c(cccc13)-c1c(C3CCCCC3)c3ccc(C(=O)O)cc3n1CCC2` [Compound 440] showed an IC50 of 107 nM.
`CC(C)N(C(=O)c1cn2c3c(cccc13)-c1c(C3CCCCC3)c3ccc(C(=O)O)cc3n1CCC2)C(C)C` [Compound 441] showed an IC50 of 271 nM.
In the case of `COCCNC(=O)c1cn2c3c(cccc13)-c1c(C3CCCCC3)c3ccc(C(=O)O)cc3n1CCC2` [Compound 442], the IC50 is reported as 123 nM.
For `CC(C)NC(=O)c1cn2c3c(cccc13)-c1c(C3CCCCC3)c3ccc(C(=O)O)cc3n1CCC2` [Compound 443], the IC50 was 121 nM.
`CCN(CC)C(=O)C(=O)c1cn2c3c(cccc13)-c1c(C3CCCCC3)c3ccc(C(=O)O)cc3n1CCC2` [Compound 453] gave an IC50 of 212 nM.
`O=C(O)c1ccc2c(C3CCCCC3)c3n(c2c1)CCCn1cc(C(=O)CN2CCCCC2)c2cccc-3c21` [Compound 454] showed an IC50 of 348 nM.

Same assay, conditions: homopolymer substrate, [3H]-UTP incorporation, 30° C., 90 minutes; read-out: IC50
`CC(C)NCCCc1cn2c3c(cccc13)-c1c(C3CCCCC3)c3ccc(C(=O)O)cc3n1CCC2` [Compound 433] gave an IC50 of 181 nM.
In the case of `O=C(O)c1ccc2c(C3CCCCC3)c3n(c2c1)CCCn1cc(CCCN2CCCCC2)c2cccc-3c21` [Compound 434], the IC50 is reported as 172 nM.
`O=C(O)c1ccc2c(C3CCCCC3)c3n(c2c1)CCCn1cc(CCCN2CCCC2)c2cccc-3c21` [Compound 435] showed an IC50 of 171 nM.
`CCN(CC)CCCc1cn2c3c(cccc13)-c1c(C3CCCCC3)c3ccc(C(=O)O)cc3n1CCC2` [Compound 436] showed an IC50 of 333 nM.
`N#Cc1cn2c3c(cccc13)-c1c(C3CCCCC3)c3ccc(C(=O)O)cc3n1CCC2` [Compound 444] gave an IC50 of 215 nM.
For `O=C(O)c1ccc2c(C3CCCCC3)c3n(c2c1)CCCn1cc(-c2nnn[nH]2)c2cccc-3c21` [Compound 445], the IC50 was 103 nM.
For `N=C(N)c1cn2c3c(cccc13)-c1c(C3CCCCC3)c3ccc(C(=O)O)cc3n1CCC2` [Compound 446], the IC50 was 169 nM.
`NC1CCN2CCn3c(c(C4CCCCC4)c4ccc(C(=O)O)cc43)-c3cc(F)cc1c32` (stereo not shown) [Compound 447] showed an IC50 of 59 nM.
`CN1CCN(CCc2cn3c4c(cccc24)-c2c(C4CCCCC4)c4ccc(C(=O)O)cc4n2CCC3)CC1` [Compound 449] gave an IC50 of 253 nM.
`CCN(CC)CCc1cn2c3c(cccc13)-c1c(C3CCCCC3)c3ccc(C(=O)O)cc3n1CCC2` [Compound 452] was tested, and the IC50 was 325 nM.
Work on `O=C(O)c1ccc2c(C3CCCCC3)c3n(c2c1)CCCn1cc(Cl)c2cccc-3c21` [Compound 455] yielded an IC50 of 160 nM.
`O=C(O)c1ccc2c(C3CCCCC3)c3n(c2c1)CCCn1ccc2c(Cl)ccc-3c21` [Compound 456] was tested, and the IC50 was 125 nM.
With `O=C(O)c1ccc2c(C3CCCCC3)c3n(c2c1)CCCn1cc(CN2CCCCC2)c2c(Cl)ccc-3c21` [Compound 457] the IC50 was 195 nM.
`CN1CCN(Cc2cn3c4c(ccc(Cl)c24)-c2c(C4CCCCC4)c4ccc(C(=O)O)cc4n2CCC3)CC1` [Compound 458] gave an IC50 of 196 nM.
Compound `CCN(C)Cc1cn2c3c(ccc(Cl)c13)-c1c(C3CCCCC3)c3ccc(C(=O)O)cc3n1CCC2` [Compound 459] has an IC50 of 160 nM.
`COc1ccc2c3c1ccn3CCCn1c-2c(C2CCCCC2)c2ccc(C(=O)O)cc21` [Compound 460] gave an IC50 of 211 nM.
In the case of `COc1ccc2c3c1c(CN1CCCCC1)cn3CCCn1c-2c(C2CCCCC2)c2ccc(C(=O)O)cc21` [Compound 461], the IC50 is reported as 368 nM.
`CCN(C)Cc1cn2c3c(ccc(OC)c13)-c1c(C3CCCCC3)c3ccc(C(=O)O)cc3n1CCC2` [Compound 462] was tested, and the IC50 was 414 nM.
Compound `COc1ccc2c3c1c(CNC(C)C)cn3CCCn1c-2c(C2CCCCC2)c2ccc(C(=O)O)cc21` [Compound 463] has an IC50 of 2060 nM.
For `O=C(O)c1ccc2c(C3CCCCC3)c3n(c2c1)CCCn1cc(CN2CCCCC2)c2ccnc-3c21` [Compound 464], the IC50 was 960 nM.
With `CCN(CC)Cc1cn2c3c(nccc13)-c1c(C3CCCCC3)c3ccc(C(=O)O)cc3n1CCC2` [Compound 465] the IC50 was 1720 nM.
`O=C(O)c1ccc2c(C3CCCCC3)c3n(c2c1)CCCn1ccc2cc(F)cc-3c21` [Compound 466] was tested, and the IC50 was 85 nM.
`O=C(O)c1ccc2c(C3CCCCC3)c3n(c2c1)CCCn1cc(CN2CCCCC2)c2cc(F)cc-3c21` [Compound 467] was tested, and the IC50 was 95 nM.
Compound `O=C(O)c1ccc2c(C3CCCCC3)c3n(c2c1)CCn1cc(CN2CCCCC2)c2c(F)ccc-3c21` [Compound 468] has an IC50 of 84 nM.
Work on `COc1ccc2c3c1c(CN1CCN(C)CC1)cn3CCCn1c-2c(C2CCCCC2)c2ccc(C(=O)O)cc21` [Compound 469] yielded an IC50 of 662 nM.
`O=C(O)c1ccc2c(C3CCCCC3)c3n(c2c1)CCN1CCC(NC2CCCCC2)c2cccc-3c21` (stereo not shown) [compound 281] gave an IC50 of 61 nM.
